The text below walks through data of US20150320774A1, “FORMULATIONS OF CYCLOPHOSPHAMIDE LIQUID CONCENTRATE” (AuroMedics Pharma LLC, priority 2014, published 2015).

One series can be described thus: physchem. To be noted: organic solvent or mixture.
For series [1] the following is noted: 500 mg/ml; for colour of solution upon storage: all temperature conditions.
Description: Since these solvents provided more than adequate solubility, the stability of the solutions containing cyclophosphamide at a concentration of 500 mg/ml was examined.

Where two headings read alike, the source gives them in different places.

Excerpt for physchem: In this example, studies were initiated to determine the solubility of cyclophosphamide monohydrate in pharmaceutically acceptable solvents such as propylene glycol, polyethylene glycol and ethanol.

A word on the solubility: it is the dissolved amount per volume that the medium holds. Take `O.O=P1(N(CCCl)CCCl)NCCCO1` (stereo not shown) [cyclophosphamide monohydrate, 2-[bis(2-chloroethyl)amino]-tetrahydro-2H-1,3,2-oxazaphosphorine-2-oxide monohydrate]: the solubility in “physchem” (ethanol), in the series “physchem” (polyethylene glycol) and in “physchem” (propylene glycol) was over 500 mg/mL in each case. Besides, the degradation entry in series [1] (PEG 400 as sole solvent) and in series [1] (PG as sole solvent) was “Significant degradation” throughout. In addition, the “colour of solution upon storage” value in series [1] (PEG 400 as sole solvent) and in series [1] (PG as sole solvent) was “turning visibly yellow in color” in each case.
